Data on 2 compounds can be found in patent US8642656B2, “Calixarene-based peptide conformation mimetics, methods of use, and methods of making” (priority 2004, dated 2014).

Where two headings read alike, the source gives them in different places.

For series [1], the system named is HUVEC. Description: EC migration, wound healing assay. The format is cell-based, human. The settings on record: 25 μM. The method, then:
EC migration was measured in the wound healing assay. HUVEC were cultured in triplicate on a 1-mg/ml fibronectin coat in a 24-well tissue culture plate. Cells were grown for 3 days until confluence. When confluent, a wound was made in the well, using a blunt glass pipette. The medium was replaced with medium containing 10 ng/ml bFGF with or without 25 μM compound and at 0, 2, 4, 6, and 8 hours, the wound width was measured at four different predefined places. Photographs were made using an inverted microscope and a Contax 167 MT 35 mm camera.

The subject of series [2] is MA148 tumor. Briefly: TUNEL staining for total cell apoptosis, MA148 tumors. Type of series: in vivo, mice. The settings on record: mean ± standard error, 20 images. The method, then:
To assess the extent of total cell apoptosis, tumor tissue sections were stained by using the TUNEL (terminal deoxyribonucleotidyl transferase-mediated dUTP-nick-end labeling) assay, which was performed according to the manufacturer's instructions (In situ cell death detection kit, fluorescein; TUNEL, Roche). After 1-hour incubation at room temperature, slides were washed with PBS and immediately imaged using an Olympus BX-60 fluorescence microscope at 200× magnification.

The test system of series [3] is LPS from E. coli serotype 055:B5. Description: LPS neutralization assay (Limulus amoebocyte lysate, QCL-1000). The format is biochemical. The procedure, abridged:
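Absorbance at 405-410 nm tracks pNA released from a synthetic substrate by LPS-activated lysate enzyme. Compounds were titrated against 0.04 units of each LPS. IC50 values derive from sigmoidal curve fitting.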

Series [4] has as its system LPS from E. coli serotype 0111:B4. The description is as above. The format is biochemical. The settings on record: read-out: IC50 values (μM) for LPS binding, E. coli 0111:B4. The procedure, abridged: (§1)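 Compounds were tested for inhibition of LPS-triggered activation of the Limulus amoebocyte lysate proenzyme, which cleaves a chromogenic substrate to release p-nitroaniline read at 405-410 nm. Each LPS was used at 0.04 units. IC50 came from sigmoidal dose-response fits.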

For series [5], the system named is B16F10 tumor vessels. Briefly: Histological analysis of microvessel density, anti-CD31 staining, B16F10 tumors. The format is in vivo, mice. The settings on record: B16F10, 10 mg/kg; mean ± standard error, 20 images. As to the method: Immunohistochemistry was used to assess microvessel density and the extent of total cell apoptosis. Approximately, tumors of the same size and with no apparent necrosis were selected for processing. On the last day of treatment mice were sacrificed and tumors were excised. Tumor tissue was embedded in tissue freezing medium (Miles Inc, Elkart, Ind.) and shock frozen in liquid nitrogen. Sections of tissue (10 μm thickness) were prepared for immunohistochemical analysis. For this, tissue sections were brought to room temperature, air dried overnight, and then fixed in acetone for 10 minutes. Slides were allowed to air dry for at least 30 minutes and were washed three limes for 5 minutes each in phosphate-buffered saline (PBS, pH 7.4). Samples were then blocked with PBS containing 0.1% bovine serum albumin and 3% human serum albumin for at least 30 minutes at room temperature in a humidified box. Samples were subsequently incubated with phycoerytrin (PE)-conjugated monoclonal antibody to CD31 (PECAM-1) in a 1:50 dilution (Pharmigen, San Diego, Calif.) to stain for microvessel density.
Digital images were stored and processed using Adobe Photoshop (Adobe Inc., Mountain View Calif.). Quantification of microvessel density, were determined as described previously (Dings et al., Cancer Res 63, 382-385 (2003)). Statistical analysis was performed using the Student's t-test.

Series [6] can be described thus: Hematocrit levels, study with B16 tumors in immune competent mice. Type of series: in vivo. The settings on record: vehicle 51±1.4. The method, then:
As an indirect measurement of general toxicity, body weights of mice were monitored twice weekly, using a digital balance (Ohaus Florham, N.J.). To determine hematocrit levels, blood samples were extracted by tail vein bleedings one day after terminating treatment, and blood was collected in heparinized micro-hematocrit capillary lubes (Fisher Pittsburgh, Pa.). Samples were spun down for 10 minutes in a micro-hematocrit centrifuge (Clay-Adams; NY), and the amount of hematocrit was determined using an international microcapillary reader (IEC; Needham, Mass.).

Series [7] relates to LPS from S. typhimurium. Briefly: LPS neutralization assay (Limulus amoebocyte lysate, QCL-1000). The format is biochemical, Salmonella typhimurium. The settings on record: read-out: IC50 values (μM) for LPS binding, Salmonella. The method in brief: as §1
Series [8] deals with fibroblasts. Briefly: Proliferation of fibroblasts (general cell toxicity check). The format is cell-based.
Where [9] appears, read: Table 3, errors estimated ±30%, read-out: IC50 values (μM) for LPS binding, E. coli 055:B5.

Regarding “5,11,17,23-Tetra-tert-butyl-25,27-bis(2-guanidinoethoxy)-26,28-dihydroxy calix[4]arene trifluoroacetic acid salt [Compound 27]”, in series [1], the “effect on EC migration, wound assay (in words)” value is “as effective as βpep-25 and more effective than 40”. Further, the Apoptosis amounted to 2418 ± 72 pixel counts per image in series [2] (MA148, 2.7 mg/kg) and 2333 ± 173 pixel counts per image in series [2] (MA148, 10 mg/kg). Also, the IC50 is more than 5 µM in series [3] (setting [9]); more than 5 µM in series [4] (Table 3, errors estimated ±30%); 4.4 µM in series [7] (Table 3, errors estimated ±30%); approximately 20 µM in series [8] (read-out: concentration giving 50% growth inhibition, fibroblasts). In series [5], the “Branch Points” value is listed as 3.5 ± 0.5 pixel counts per image. In addition, the “End Points” value in series [5] came out at 35.2 ± 4.0 pixel counts per image. For the same compound, the “Vessel Density” value in series [5] was determined as 10743 ± 764 pixel counts per image. Further, in series [5], the “Vessel Length” value was found to be 7.5 ± 0.6 pixel counts per image. The “Hematocrit levels ±SD” value in series [6] is given as 49±1.4 percentage red blood cells.
Regarding `CN(C)CCNC(=O)COc1c2cccc1Cc1cccc(c1OCC(=O)NCCN(C)C)Cc1cccc(c1OCC(=O)NCCN(C)C)Cc1cccc(c1OCC(=O)NCCN(C)C)C2` [Compound 40], the Apoptosis in series [2] (MA148, 2.4 mg/kg) was determined as 2919 ± 144 pixel counts per image; in series [2] (MA148, 10 mg/kg), 2323 ± 171 pixel counts per image. For the same compound, the IC50 in series [3] (Table 2, read-out: IC50 values (μM) for LPS binding, E. coli 055:B4) is 3.4 µM; in series [3] (setting [9]) it was 3.4 µM; in series [4] (Table 2), more than 5 µM; in series [4] (Table 3, errors estimated ±30%) it was more than 5 µM; in series [7] (Table 2), more than 5 µM; in series [7] (Table 3, errors estimated ±30%), more than 5 µM. Moreover, in series [5], the “Branch Points” value is reported as 5.2 ± 0.7 pixel counts per image. Further, in series [5], the “End Points” value turned out to be 21.9 ± 2.6 pixel counts per image. The “Vessel Density” value in series [5] amounted to 10231 ± 1330 pixel counts per image. Besides, the “Vessel Length” value in series [5] is given as 8.6 ± 1.2 pixel counts per image. Also, the “Hematocrit levels ±SD” value in series [6] was 53±0 percentage red blood cells. In addition, in series [8], the “concentration giving 50% growth inhibition, fibroblasts” value is recorded as “no delectable effects”.
